Laboratory results published in ChEMBL document CHEMBL5537207, “Discovery and Characterization of Selective, First-in-Class Inhibitors of Citron Kinase” (J Med Chem, 2024).

What was measured:
[1] = AUC in CD-1 disease model mouse plasma at 30 mg/kg, po measured after 24 hrs; format: ADME, organism-based; settings: CD-1, mouse
[2] = AUC in Sprague-Dawley rat at 1 mg/kg, iv measured upto 24 hrs; format: ADME, organism-based; settings: in vivo
[3] = AUC in Sprague-Dawley rat at 10 mg/kg, po measured upto 24 hrs; format: ADME, organism-based; settings: in vivo
CYP2C9 = CYP2C9 (Homo sapiens, UniProt P11712); experiment: Inhibition of CYP2C9 (unknown origin) at 10 uM by LC/MS/MS analysis relative to control; format: ADME
[4] = Cmax in CD-1 disease model mouse plasma at 30 mg/kg, po measured after 24 hrs; format: ADME, organism-based; settings: CD-1, mouse
Hs-578T = experiment: Antiproliferative activity against human Hs-578T cells assessed as cell viability incubated for 48 hrs by CellTiter-Glo cell viability assay; format: functional
[5] = Half life in Sprague-Dawley rat at 10 mg/kg, po measured upto 24 hrs; format: ADME, organism-based; settings: in vivo
COLO 205 = experiment: Antiproliferative activity against human COLO 205 Panel cells assessed as cell viability incubated for 48 hrs by CellTiter-Glo cell viability assay; format: functional
CYP2D6 = CYP2D6 (Homo sapiens, UniProt P10635); experiment: Inhibition of CYP2D6 (unknown origin) at 10 uM by LC/MS/MS analysis relative to control; format: ADME
[6] = Apparent permeability across apical to basolateral side in dog MDCK cells incubated for 1 hr by LCMS analysis; format: ADME, cell-based, Canis lupus familiaris
[7] = Cmax in CD-1 disease model mouse brain at 30 mg/kg, po measured after 24 hrs; format: ADME, organism-based; settings: CD-1, mouse
[8] = AUC in CD-1 disease model mouse brain at 30 mg/kg, po measured after 24 hrs; format: ADME, organism-based; settings: CD-1, mouse
[9] = test system: Panel NCI-60 (60 carcinoma cell lines); experiment: Antiproliferative activity against human Panel NCI-60 (60 carcinoma cell lines) assessed as cell viability incubated for 48 hrs by CellTiter-Glo cell viability assay; format: functional
[10] = Volume of distribution at steady state in Sprague-Dawley rat at 1 mg/kg, iv measured upto 24 hrs; format: ADME, organism-based; settings: in vivo, read-out: Vdss
[11] = Cmax in Sprague-Dawley rat at 1 mg/kg, iv measured upto 24 hrs; format: ADME, organism-based; settings: in vivo
786-0 = experiment: Antiproliferative activity against human 786-0 Panel cells assessed as cell viability incubated for 48 hrs by CellTiter-Glo cell viability assay; format: functional
[12] = Plasma clearance in Sprague-Dawley rat at 1 mg/kg, iv measured upto 24 hrs; format: ADME, organism-based
[13] = Cmax in Sprague-Dawley rat at 10 mg/kg, po measured upto 24 hrs; format: ADME, organism-based; settings: in vivo
[14] = Oral bioavailability in Sprague-Dawley rat at 10 mg/kg measured upto 24 hrs; format: ADME, organism-based; settings: in vivo
[15] = Unbound fraction in human plasma measured after 4.5 hrs by LC-MS/MS analysis; format: ADME, cell-free
CYP3A4 = CYP3A4 (Homo sapiens, UniProt P08684); experiment: Inhibition of CYP3A4 (unknown origin) at 10 uM by LC/MS/MS analysis relative to control; format: ADME
[16] = Half life in Sprague-Dawley rat at 1 mg/kg, iv measured upto 24 hrs; format: ADME, organism-based; settings: in vivo
[17] = Unbound fraction in rat plasma measured after 4.5 hrs by LC-MS/MS analysis; format: ADME, cell-free
[18] = molecular target: T1, Citron Rho-interacting kinase (Homo sapiens, UniProt O14578); experiment: Binding affinity to NanoLuc fused-CITK kinase domain (unknown origin) expressed in HEK293T cells assessed as dissociation constant NanoBRET Target Engagement Intracellular Kinase Assay; format: cell-based
[19] = molecular target: T1, Citron Rho-interacting kinase
[20] = molecular target: T1, Citron Rho-interacting kinase; experiment: Binding affinity to NanoLuc fused-CITK (unknown origin) expressed in HEK293T cells assessed as dissociation constant NanoBRET Target Engagement Intracellular Kinase Assay; format: cell-based
JVM-3 = experiment: Antiproliferative activity against human JVM-3 cells assessed as cell viability by standard PRISM assay; format: functional, cell-based

T1 sequence (O14578 whole entry, the tested form may be a part): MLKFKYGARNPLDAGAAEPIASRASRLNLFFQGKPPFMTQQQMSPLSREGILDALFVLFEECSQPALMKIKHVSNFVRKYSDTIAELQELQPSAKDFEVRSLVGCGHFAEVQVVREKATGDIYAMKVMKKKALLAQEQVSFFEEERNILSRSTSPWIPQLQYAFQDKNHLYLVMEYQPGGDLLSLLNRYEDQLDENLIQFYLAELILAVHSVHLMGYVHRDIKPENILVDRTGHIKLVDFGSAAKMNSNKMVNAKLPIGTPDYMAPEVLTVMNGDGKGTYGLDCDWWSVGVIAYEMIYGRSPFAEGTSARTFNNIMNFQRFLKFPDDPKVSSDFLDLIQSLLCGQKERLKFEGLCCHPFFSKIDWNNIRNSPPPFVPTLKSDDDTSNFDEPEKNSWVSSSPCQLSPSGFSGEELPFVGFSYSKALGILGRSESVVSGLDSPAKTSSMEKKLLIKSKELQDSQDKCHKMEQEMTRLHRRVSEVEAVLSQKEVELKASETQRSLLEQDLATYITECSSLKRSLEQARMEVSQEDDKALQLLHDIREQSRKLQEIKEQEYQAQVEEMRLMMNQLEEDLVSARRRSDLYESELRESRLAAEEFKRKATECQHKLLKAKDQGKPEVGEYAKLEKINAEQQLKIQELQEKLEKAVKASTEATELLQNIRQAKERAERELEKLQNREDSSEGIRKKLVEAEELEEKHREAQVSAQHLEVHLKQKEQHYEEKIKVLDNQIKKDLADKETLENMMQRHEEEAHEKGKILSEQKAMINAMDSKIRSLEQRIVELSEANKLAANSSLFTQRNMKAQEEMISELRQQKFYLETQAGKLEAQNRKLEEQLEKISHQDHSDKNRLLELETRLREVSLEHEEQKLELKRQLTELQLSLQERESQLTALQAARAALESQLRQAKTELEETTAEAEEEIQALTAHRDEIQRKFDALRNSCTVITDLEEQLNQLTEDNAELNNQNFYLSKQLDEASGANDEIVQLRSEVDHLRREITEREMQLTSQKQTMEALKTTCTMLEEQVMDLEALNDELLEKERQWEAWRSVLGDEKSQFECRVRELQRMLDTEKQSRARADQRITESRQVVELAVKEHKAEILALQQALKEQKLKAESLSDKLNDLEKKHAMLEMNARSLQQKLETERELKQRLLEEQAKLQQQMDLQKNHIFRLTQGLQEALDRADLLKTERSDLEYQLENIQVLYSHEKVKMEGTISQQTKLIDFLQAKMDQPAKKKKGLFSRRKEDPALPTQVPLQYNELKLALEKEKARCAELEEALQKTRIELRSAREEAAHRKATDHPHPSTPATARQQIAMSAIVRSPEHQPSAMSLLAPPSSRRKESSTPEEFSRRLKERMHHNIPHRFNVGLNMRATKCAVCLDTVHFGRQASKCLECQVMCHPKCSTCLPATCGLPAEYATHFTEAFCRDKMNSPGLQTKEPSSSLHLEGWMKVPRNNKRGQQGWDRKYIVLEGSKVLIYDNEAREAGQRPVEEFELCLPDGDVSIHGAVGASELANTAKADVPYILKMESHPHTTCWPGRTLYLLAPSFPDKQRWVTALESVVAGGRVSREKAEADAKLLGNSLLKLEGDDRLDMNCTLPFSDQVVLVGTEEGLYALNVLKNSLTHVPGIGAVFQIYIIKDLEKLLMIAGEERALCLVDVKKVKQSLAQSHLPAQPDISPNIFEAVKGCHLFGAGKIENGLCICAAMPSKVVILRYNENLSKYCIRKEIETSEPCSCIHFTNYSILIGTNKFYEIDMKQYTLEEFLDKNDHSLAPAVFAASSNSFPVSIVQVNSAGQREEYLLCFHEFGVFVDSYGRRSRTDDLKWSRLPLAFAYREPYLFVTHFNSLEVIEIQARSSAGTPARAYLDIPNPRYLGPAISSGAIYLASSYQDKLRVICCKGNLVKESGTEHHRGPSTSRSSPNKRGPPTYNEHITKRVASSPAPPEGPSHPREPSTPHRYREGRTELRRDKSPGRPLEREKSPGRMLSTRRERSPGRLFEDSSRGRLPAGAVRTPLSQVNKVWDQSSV
Sequence of CYP2D6 (P10635 whole entry): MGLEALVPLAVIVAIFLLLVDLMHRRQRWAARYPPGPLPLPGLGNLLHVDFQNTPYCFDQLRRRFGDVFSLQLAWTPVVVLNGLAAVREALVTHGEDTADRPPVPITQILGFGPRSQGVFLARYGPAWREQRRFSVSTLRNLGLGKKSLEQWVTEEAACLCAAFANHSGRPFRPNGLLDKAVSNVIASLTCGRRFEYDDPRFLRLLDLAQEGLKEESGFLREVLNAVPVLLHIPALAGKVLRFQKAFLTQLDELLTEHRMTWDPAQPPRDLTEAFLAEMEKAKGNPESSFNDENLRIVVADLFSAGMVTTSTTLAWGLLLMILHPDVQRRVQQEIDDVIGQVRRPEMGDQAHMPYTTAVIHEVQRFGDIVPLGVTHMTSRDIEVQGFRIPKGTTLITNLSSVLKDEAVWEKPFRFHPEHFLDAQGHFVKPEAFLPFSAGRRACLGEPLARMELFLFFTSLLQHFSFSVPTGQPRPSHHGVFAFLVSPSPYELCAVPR
Sequence of CYP3A4 (P08684 whole entry): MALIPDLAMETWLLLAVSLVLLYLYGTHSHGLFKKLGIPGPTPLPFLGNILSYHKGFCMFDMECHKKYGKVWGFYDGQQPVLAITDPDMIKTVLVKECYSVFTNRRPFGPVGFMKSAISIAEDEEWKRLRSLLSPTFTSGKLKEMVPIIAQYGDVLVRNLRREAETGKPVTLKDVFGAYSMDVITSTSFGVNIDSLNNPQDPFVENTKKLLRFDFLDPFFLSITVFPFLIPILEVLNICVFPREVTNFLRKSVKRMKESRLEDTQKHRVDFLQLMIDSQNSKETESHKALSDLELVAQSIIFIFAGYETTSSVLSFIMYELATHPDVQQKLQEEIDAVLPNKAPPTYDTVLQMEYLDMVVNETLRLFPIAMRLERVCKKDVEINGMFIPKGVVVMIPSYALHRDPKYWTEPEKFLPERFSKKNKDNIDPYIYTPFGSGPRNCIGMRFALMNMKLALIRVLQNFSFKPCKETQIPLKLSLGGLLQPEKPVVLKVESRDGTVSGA
Sequence of CYP2C9 (P11712 whole entry): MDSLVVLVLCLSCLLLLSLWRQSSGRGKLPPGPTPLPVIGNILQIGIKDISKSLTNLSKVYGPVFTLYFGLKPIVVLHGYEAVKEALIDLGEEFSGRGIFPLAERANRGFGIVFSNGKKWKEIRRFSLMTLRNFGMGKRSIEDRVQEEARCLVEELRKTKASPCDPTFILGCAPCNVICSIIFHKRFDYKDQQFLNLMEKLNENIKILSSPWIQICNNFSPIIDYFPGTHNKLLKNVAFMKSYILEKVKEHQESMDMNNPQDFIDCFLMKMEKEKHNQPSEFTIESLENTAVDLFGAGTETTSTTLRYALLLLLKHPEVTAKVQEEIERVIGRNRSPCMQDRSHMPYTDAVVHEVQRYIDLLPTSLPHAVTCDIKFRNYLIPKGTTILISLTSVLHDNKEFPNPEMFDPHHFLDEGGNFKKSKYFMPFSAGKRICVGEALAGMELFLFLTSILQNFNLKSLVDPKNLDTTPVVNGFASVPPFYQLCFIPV

## Cc1cc2c(-c3ccc(NC(=O)[C@H](N)CC(C)(C)C)cc3C)ccnc2[nH]1
[1]
  AUC at 24 h: 90.5 µM·h
[2]
  AUC: 10.2 µM·h
[3]
  AUC: 7.3 µM·h
CYP2C9
  inhibition at 10 µM: 6.7%
[4]
  Cmax: 12.9 µM
Hs-578T
  GI50: < 2000 nM
[5]
  half-life: 4 h
COLO 205
  GI50: < 2000 nM
CYP2D6
  inhibition at 10 µM: 56.2%
[6]
  Papp A→B at 1 h: 21.3 ×10⁻⁶ cm/s
[7]
  Cmax: 1.02 µM
[8]
  AUC at 24 h: 7.71 µM·h
[9]
  GI50: 7000 nM
[10]
  Vd: 0.91 L/kg
[11]
  Cmax: 5.8 µM
786-0
  GI50: < 2000 nM
[12]
  clearance: 4.4 mL/min/kg
[13]
  Cmax: 12.3 µM
[14]
  F: 72%
[15]
  Fu: 0.52%
CYP3A4
  inhibition at 10 µM: 28.3%
[16]
  half-life: 4.3 h
[17]
  Fu: 0.26%

## Cc1cc2c(-c3ccc(NC(=O)[C@H](N)CC(C)(C)C)cc3C)cncc2[nH]1
[18]
  Kd: Not Active
[19]
  IC50: > 30000 nM
[20]
  Kd: Not Active

## CC(C)C[C@H](N)C(=O)Nc1ccc(-c2ccnc3[nH]ccc23)cc1
[19]
  IC50: 42 nM

## CC(N)C(=O)Nc1ccc(-c2ccnc3[nH]ccc23)cc1 (centres undefined)
[19]
  IC50: 250 nM

## Cc1cc2c(-c3ccc(NC(=O)[C@H](N)[C@@H](O)C(C)C)cc3C)ccnc2[nH]1
JVM-3
  IC50: 4400 nM
[19]
  IC50: 5.5 nM

## Cc1cc2c(-c3ccc(NC(=O)[C@@H](N)[C@H](O)C(C)C)cc3C)ccnc2[nH]1
[19]
  IC50: 16 nM

## C[C@@H](N)c1ccc(C(=O)Nc2ccnc3[nH]ccc23)cc1 [Y-39983]
[19]
  IC50: 150 nM

## CC(N)c1ccc(-c2ccnc3[nH]ccc23)cc1 (centres undefined)
[19]
  IC50: 500 nM

## CC(C)CC(CN)C(=O)Nc1ccc(-c2ccnc3[nH]ccc23)cc1 (centres undefined)
[19]
  IC50: 410 nM
